According to US6762326B2, “C2-substituted idan-1-ones and their derivatives, processes for their preparation and their use as pharmaceuticals” (Aventis Pharma Deutschland GmbH, priority 2001, dated 2004):

Test system: female NMRI mice
Assay: Anorectic action: cumulative evaporated milk consumption after 24 h feed removal
Type: in vivo
Details: versus control animals
Method: The anorectic action was tested on female NMRI mice. After removal of feed for 24 hours, the preparation to be tested was administered intraperitoneally (ip) or by gavage (po). The animals were housed singly and, with free access to drinking water, they were offered evaporated milk 30 minutes after administration of the preparation. The consumption of evaporated milk was determined and the general behavior of the animals was monitored every half an hour for 7 hours. The measured milk consumption was compared to that of vehicle-treated control animals.

## CSC1Cc2cc(Cl)ccc2C1=O (stereo not drawn) [Example 1, 5-Chloro-2-methylsulfanylindan-1-one]
10 mg/kg ip
  Reduction in cumulative milk consumption as % of the control: 64%

## CS(=O)(=O)C1Cc2cc(Cl)ccc2C1=O (stereo not drawn) [Example 2, 5-Chloro-2-methanesulfonylindan-1-one]
20 mg/kg ip
  Reduction in cumulative milk consumption as % of the control: 70%

## C[S+]([O-])C1Cc2cc(Cl)ccc2C1=O (stereo not drawn) [Example 9, 5-chloro-2-methanesulfinylindan-1-one]
50 mg/kg po
  Reduction in cumulative milk consumption as % of the control: 73%
